From ChEMBL document CHEMBL1124969, “GABA agonists and uptake inhibitors. Synthesis, absolute stereochemistry, and enantioselectivity of (R)-(-)- and (S)-(+)-homo-beta-proline” (J Med Chem, 1990)

Assays:
[1] = molecular target: GABA B receptor (Rattus norvegicus, UniProt O88871+Q9Z0U4); experiment: In vitro binding affinity against Gamma-aminobutyric acid type B receptor in rat brain synaptic membranes at pH 7.4; format: cell membranes
[2] = molecular target: GABA-A receptor; anion channel; experiment: In vitro binding affinity against Gamma-aminobutyric acid A receptor in rat brain synaptic membranes at pH 7.1; format: cell membranes

Chain of GABA B receptor (Q9Z0U4 whole entry): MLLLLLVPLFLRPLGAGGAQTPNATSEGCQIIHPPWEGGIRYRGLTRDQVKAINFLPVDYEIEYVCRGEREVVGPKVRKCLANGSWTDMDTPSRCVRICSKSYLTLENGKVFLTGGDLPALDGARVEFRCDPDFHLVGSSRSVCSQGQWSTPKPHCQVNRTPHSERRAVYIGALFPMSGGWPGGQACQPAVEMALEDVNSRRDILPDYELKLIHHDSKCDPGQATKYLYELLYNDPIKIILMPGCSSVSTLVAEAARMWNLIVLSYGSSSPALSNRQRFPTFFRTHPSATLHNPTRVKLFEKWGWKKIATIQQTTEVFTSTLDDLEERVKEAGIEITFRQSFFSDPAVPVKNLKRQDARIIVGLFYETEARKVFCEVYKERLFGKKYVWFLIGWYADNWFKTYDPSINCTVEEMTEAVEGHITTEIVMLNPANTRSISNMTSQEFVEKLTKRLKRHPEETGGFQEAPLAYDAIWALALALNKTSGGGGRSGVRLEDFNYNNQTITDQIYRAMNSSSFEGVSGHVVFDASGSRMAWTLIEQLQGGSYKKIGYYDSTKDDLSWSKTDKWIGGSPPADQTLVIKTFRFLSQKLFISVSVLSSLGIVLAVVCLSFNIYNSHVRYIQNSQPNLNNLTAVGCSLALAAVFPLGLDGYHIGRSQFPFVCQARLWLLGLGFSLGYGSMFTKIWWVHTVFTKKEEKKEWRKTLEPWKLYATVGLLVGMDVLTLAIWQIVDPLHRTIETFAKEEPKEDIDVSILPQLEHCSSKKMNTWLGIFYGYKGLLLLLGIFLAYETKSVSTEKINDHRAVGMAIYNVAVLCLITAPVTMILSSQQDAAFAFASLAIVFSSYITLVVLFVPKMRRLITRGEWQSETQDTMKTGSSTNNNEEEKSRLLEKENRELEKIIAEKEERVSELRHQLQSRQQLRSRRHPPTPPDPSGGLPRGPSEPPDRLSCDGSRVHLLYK
Chain of GABA B receptor (O88871 whole entry): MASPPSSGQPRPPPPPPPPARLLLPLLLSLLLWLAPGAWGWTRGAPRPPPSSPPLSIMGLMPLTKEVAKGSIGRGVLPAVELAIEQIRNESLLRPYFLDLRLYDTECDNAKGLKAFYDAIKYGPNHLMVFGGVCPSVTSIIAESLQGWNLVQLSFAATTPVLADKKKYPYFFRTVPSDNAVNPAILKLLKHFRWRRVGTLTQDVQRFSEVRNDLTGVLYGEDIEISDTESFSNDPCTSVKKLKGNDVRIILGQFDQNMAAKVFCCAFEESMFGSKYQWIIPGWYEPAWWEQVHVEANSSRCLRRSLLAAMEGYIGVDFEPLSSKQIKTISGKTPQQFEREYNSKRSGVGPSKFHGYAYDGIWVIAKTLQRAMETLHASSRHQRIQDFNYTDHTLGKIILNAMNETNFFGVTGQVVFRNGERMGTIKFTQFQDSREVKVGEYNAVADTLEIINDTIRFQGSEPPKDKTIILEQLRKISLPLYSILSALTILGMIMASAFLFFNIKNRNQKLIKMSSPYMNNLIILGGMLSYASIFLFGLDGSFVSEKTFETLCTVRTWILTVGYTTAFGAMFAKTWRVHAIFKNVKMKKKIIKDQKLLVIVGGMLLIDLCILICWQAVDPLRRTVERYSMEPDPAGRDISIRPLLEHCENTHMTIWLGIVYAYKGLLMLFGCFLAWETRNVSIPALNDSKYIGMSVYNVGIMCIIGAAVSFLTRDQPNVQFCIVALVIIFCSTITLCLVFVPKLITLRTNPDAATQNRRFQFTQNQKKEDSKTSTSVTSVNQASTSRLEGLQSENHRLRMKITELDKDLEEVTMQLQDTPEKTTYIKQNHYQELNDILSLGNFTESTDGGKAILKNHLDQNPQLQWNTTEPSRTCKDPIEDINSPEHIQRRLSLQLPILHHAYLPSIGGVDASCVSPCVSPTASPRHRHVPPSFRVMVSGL

Row | Compound | IC50 [1] | IC50 [2]
1 | O=C(O)C[C@H]1CCNC1 | > 100000 nM | 70 nM
2 | O=C(O)CC1CCNC1 (racemic) | 14100 nM | 200 nM
3 | O=C(O)C[C@@H]1CCNC1 | 7800 nM | 900 nM
